Measured values as given in PubChem BioAssay (NCI).
Where “and” joins values, the source holds several entries; their conditions need not be identical. Equal values may be shown once.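 Assay format: 96-well plates, 48-hour exposure. GI50: concentration for 50% inhibition of growth. The concentration for full growth arrest is given as TGI.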

Legend:
Assay in all cases: NCI tumour cell line growth inhibition, 48 h
SNB-78 CNS = tested on: SNB-78 CNS
M19-MEL melanoma = tested on: M19-MEL melanoma
DLD-1 colon = tested on: DLD-1 colon
HOP-18 NSCLC = tested on: HOP-18 NSCLC
XF 498 CNS = tested on: XF 498 CNS
LXFL 529 NSCLC = tested on: LXFL 529 NSCLC
KM20L2 colon = tested on: KM20L2 colon
RXF-631 renal = tested on: RXF-631 renal
P388/ADR leukemia = tested on: P388/ADR leukemia
P388 leukemia = tested on: P388 leukemia
SN12K1 renal = tested on: SN12K1 renal

| SMILES | TGI (SNB-78 CNS) | TGI (M19-MEL melanoma) | TGI (DLD-1 colon) | TGI (HOP-18 NSCLC) | TGI (XF 498 CNS) | TGI (LXFL 529 NSCLC) [µM] | TGI (KM20L2 colon) [µM] | TGI (RXF-631 renal) [µM] | GI50 (SNB-78 CNS) [µM] | TGI (P388/ADR leukemia) [µM] | GI50 (M19-MEL melanoma) [µM] | TGI (P388 leukemia) [µM] | GI50 (DLD-1 colon) [µM] | GI50 (HOP-18 NSCLC) [µM] | TGI (SN12K1 renal) [µM] |
| --- | --- | --- | --- | --- | --- | --- | --- | --- | --- | --- | --- | --- | --- | --- | --- |
| COc1ccc(CNc2cnc3ccc(N)cc3n2)cc1 | > 100 µM | > 100 µM | > 100 µM | > 100 µM | > 100 µM | – | – | – | – | – | – | – | – | – | – |
| Cc1c(N2CCOCC2)nc2ccc(Cl)cc2c1-c1ccccc1 | > 100 µM | > 100 µM | – | – | – | > 100 | – | – | – | – | – | – | – | – | – |
| O=[N+]([O-])c1ccc(C[P+]2(c3ccccc3)CCCCC2)cc1 | – | – | > 100 µM | > 100 µM | – | > 100 | > 100 | – | – | – | – | – | – | – | – |
| Cc1nc2ccccc2nc1CC(=O)C(=O)Nc1ccc(Cl)cc1Cl | > 100 µM | > 100 µM | > 100 µM | – | – | > 100 | > 100 | > 100 | – | – | – | – | – | – | – |
| Cc1cc([N+](=O)[O-])c(C)c2c1[nH]c1ccc(Cl)cc12 | > 100 µM | > 100 µM | – | > 100 µM | > 100 µM | – | – | – | – | – | – | – | – | – | – |
| Cc1c2ccnc(C(N)=O)c2c(C)c2c1[nH]c1ccccc12 | 48.3 µM and > 100 µM | 25.2 µM and 17.4 µM | 45 µM and 23.6 µM | 46.5 µM and 47.3 µM | 19.8 µM and 26.4 µM | 26.9 | 40.5 | 28.8 | 6.28 | 35.8 | 4.7 | 14 | 3.57 | 15 | 19.1 |
| CCOC(=O)C1C(c2ccc(Cl)cc2Cl)NC(c2ccc(C)cc2)C(C(=O)OC)S1(=O)=O (stereo unspecified) | > 100 µM | > 100 µM | > 100 µM | – | > 100 µM | > 100 | – | – | – | – | – | – | – | – | – |
| C[C@]12CCC3[C@@H](CCC45OC4C(=O)CC[C@]35C)C1Cc1cnn(-c3ccc(F)cc3)c1N2 (stereo partly specified) | 79 µM | > 100 µM | – | > 100 µM | > 100 µM | > 100 | 62.6 | – | – | – | – | – | – | – | – |
| O=[N+]([O-])c1cccc(C2=NN(c3ccccc3)C3c4cc(Br)ccc4OCC23)c1 (stereo unspecified) | > 100 µM | > 100 µM | > 100 µM | > 100 µM | > 100 µM | > 100 | > 100 | – | – | – | – | – | – | – | – |
| CCCCCCN(CCCCCC)C(=S)N/N=C(\C)c1ccccn1 | 2.34 µM | – | 2.93 µM | – | – | 1.45 | 2.34 | 3.67 | – | – | – | – | – | – | – |
| N#CNC(N)=NCc1ccccc1 | – | > 100 µM | > 100 µM | – | – | > 100 | > 100 | – | – | – | – | – | – | – | – |
| CC1=NN(C(=O)Cc2ccccc2)C(=O)/C1=C\c1ccc(O)cc1 | > 100 µM | > 100 µM | > 100 µM | – | > 100 µM | > 100 | > 100 | – | – | – | – | – | – | – | – |
| CCCCCCCC(=O)OCC(COC(=O)C(C)(C)C)OC(=O)Cc1ccccc1 (stereo unspecified) | – | > 100 µM | > 100 µM | > 100 µM | – | > 100 | > 100 | – | – | – | – | – | – | – | – |
| COc1cc(C)c(CC/C(C)=C/Cc2cc(O)ccc2O)c(C)c1C | – | > 25 µM | > 25 µM | > 25 µM | > 25 µM | > 25 | > 25 | – | – | – | – | – | – | – | – |
